US11147792B2, “Inhibitors of microbially induced amyloid” (Axial Therapeutics, Inc, priority 2017, dated 2021)

Target: T1, E. coli CsgA (Escherichia coli, UniProt P28307)
T1 construct: made in house; host or cells: E. coli NEB 3016 slyD::kan, pET11d
Assay: In vitro ThioflavinT assay of CsgA aggregation
Assay type: biochemical
Settings: read-out: Inhibition of Aggregation CsgA (compound activity range), compounds at 20 μM; CsgA at 20 μM; ThT fluorescence at 18 hours
Method: In Vitro ThioflavinT Assay to Determine Effects of Compounds on CsgA Aggregation.
To assess the effects of compounds on aggregation of E. coli CsgA, a cell-free assay was performed using purified CsgA and Thioflavin T. In the assay, histidine-tagged CsgA was over-expressed in E. coli NEB 3016 slyD::kan cells harboring a pET11d vector containing csgA with the sequence for 6 histidine residues added to the C-terminus and without the Sec signal (amino acid 1-22) sequence. To induce over-expression of CsgA, 0.5 mM isopropyl β-D-1-thiogalactopyranoside (“IPTG”) was added to cultures with an optical density at 600 nm (OD600) of 0.8-1, and induced cells were cultured at 37° C. for 1 hour prior to harvest via centrifugation. Cells were lysed under denaturing conditions with 8 M guanidine hydrochloride in 50 mM potassium phosphate buffer pH 7.3, and CsgA was purified via immobilized-metal affinity chromatography by batch purification with Nickel-NTA agarose and a combination of low pressure and gravity flow through a disposable polypropylene column, including washes under low pressure applied manually via application of a syringe plunger to the column with 50 mM potassium phosphate buffer pH 7.3 followed by 12.5 mM imidazole in 50 mM potassium phosphate buffer pH 7.3, and elution by gravity flow with 125 mM imidazole in 50 mM potassium phosphate buffer pH 7.3. Buffers with imidazole were freshly prepared prior to the protein purification. Purified CsgA was passed through a 30 kDa molecular weight cut-off filter and passed through a desalting column. All steps of the CsgA purification in the absence of guanidine hydrochloride were conducted in rapid succession with as little delay as possible. The assay was conducted in 96-well black microplates with 40 μM ThioflavinT, 1% DMSO, CsgA at 20 μM, and compounds at 20 μM. Plates were incubated at 25° C. in a Tecan Nano F200 plate reader with excitation at 438 nm using a 439 nm filter with a bandwidth of 8 nm, and emission at 495 nm with a 490 nm filter with a bandwidth of 10 nm. During the assay, plates were shaken initially for 5 seconds and subsequently for 3 seconds prior to fluorescent readings. Readings were performed every 20 minutes for up to 24 hours. The effect of compounds on CsgA aggregation in the assay was determined with data from 18 hours, following the plateau of the fluorescent signal in the untreated (no compound) control wells containing CsgA. Fluorescence values for each compound with CsgA were first adjusted by subtracting the average fluorescence of the compound in the absence of CsgA. These adjusted values were normalized by dividing them by the average fluorescence in the no-compound (i.e., untreated) control wells containing CsgA […], and the average normalized fluorescence with the compound was expressed as a percentage of the average fluorescence observed in untreated controls.

T1 sequence (P28307 23-151): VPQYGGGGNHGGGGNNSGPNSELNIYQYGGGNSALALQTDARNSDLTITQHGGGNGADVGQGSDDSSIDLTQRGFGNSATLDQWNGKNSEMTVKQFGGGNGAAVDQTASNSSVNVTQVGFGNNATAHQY

Compound	inhibition at 20 µM
O=C(CCc1ccc(O)cc1)c1c(O)cc(O)cc1O [phloretin, 3-(4-hydroxyphenyl)-1-(2,4,6-trihydroxyphenyl)propan-1-one]	10 to 30%
O=c1c(O)c(-c2ccc(O)cc2O)oc2cc(O)cc(O)c12 [morin, 2-(2,4-dihydroxyphenyl)-3,5,7-trihydroxychromen-4-one]	> 60%
O=C(/C=C/c1ccc(O)c(O)c1)O[C@H](Cc1ccc(O)c(O)c1)C(=O)O [rosmarinic acid]	30 to 60%
CC(Cc1ccc(O)c(O)c1)C(C)Cc1ccc(O)c(O)c1 (stereo not shown) [NDGA, 4,4′-(2,3-dimethylbutane-1,4-diyl)dibenzene-1,2-diol]	10 to 30%
O=c1c(O)c(-c2ccc(O)c(O)c2)oc2cc(O)cc(O)c12 [quercetin, 2-(3,4-dihydroxyphenyl)-3,5,7-trihydroxychromen-4-one]	30 to 60%

Same assay, conditions: read-out: Inhibition of Aggregation CsgA, compounds at 20 μM; CsgA at 20 μM; ThT fluorescence at 18 hours

Compound	inhibition at 20 µM
O=C(CCc1ccc(O)cc1)c1c(O)cc(O)cc1O [phloretin, 3-(4-hydroxyphenyl)-1-(2,4,6-trihydroxyphenyl)propan-1-one]	18%
O=c1c(O)c(-c2ccc(O)cc2O)oc2cc(O)cc(O)c12 [morin, 2-(2,4-dihydroxyphenyl)-3,5,7-trihydroxychromen-4-one]	69%
O=C(/C=C/c1ccc(O)c(O)c1)O[C@H](Cc1ccc(O)c(O)c1)C(=O)O [rosmarinic acid]	48%
CC(Cc1ccc(O)c(O)c1)C(C)Cc1ccc(O)c(O)c1 (stereo not shown) [NDGA, 4,4′-(2,3-dimethylbutane-1,4-diyl)dibenzene-1,2-diol]	23%
O=c1c(O)c(-c2ccc(O)c(O)c2)oc2cc(O)cc(O)c12 [quercetin, 2-(3,4-dihydroxyphenyl)-3,5,7-trihydroxychromen-4-one]	33%

Target: T2, α-synuclein seeded by E. coli CsgA (Homo sapiens, UniProt P37840)
T2 construct: made in house; host or cells: E. coli NEB 3016 slyD::kan (CsgA, pET11d); E. coli (α-synuclein)
Assay: In vitro Thioflavin T assay of CsgA-seeded α-synuclein aggregation
Assay type: biochemical
Settings: compounds at 50 μM; 2 μM CsgA, 50 μM α-synuclein; ThT fluorescence at 40 hours; read-out: Inhibition of Aggregation CsgA-seeded αSyn
Method: In Vitro Thioflavin T Assay to Determine the Effects of Compounds on CsgA-Seeded α-Synuclein Aggregation.
To induce over-expression of CsgA, 0.5 mM IPTG was added to cultures with an optical density at 600 nm (OD600) of 0.8-1, and induced cells were cultured at 37° C. for 1 hour prior to harvest via centrifugation. […] Buffers with imidazole were freshly prepared prior to the protein purification. Purified CsgA was passed through a 30 kDa molecular weight cut-off filter and through a desalting column. All steps of the CsgA purification in the absence of guanidine hydrochloride were conducted in rapid succession with as little delay as possible. […] The ammonium sulfate pellet was washed with an equal volume of 100 mM ammonium acetate in ethanol, pelleted via centrifugation, washed twice with ethanol, dried overnight, resuspended in 10 mM Tris pH 7.4, and passed through a 50 kDa cut-off column. The assay was conducted in 96-well black microplates with a single glass 2 mm bead per well, 40 μM ThioflavinT, 1% DMSO, 2 μM CsgA, 50 μM α-synuclein, 100 mM sodium chloride, 9.3 mM potassium phosphate pH 7.3, and compounds at 50 μM. […] The effect of compounds on CsgA-seeded α-synuclein aggregation in the assay was determined with data from 40 hours, following the plateau of the fluorescent signal in the untreated (no compound) control wells containing CsgA and α-synuclein. Fluorescence values for each compound with CsgA and α-synuclein were first adjusted by subtracting the average fluorescence of the compound in the absence of CsgA and α-synuclein.

Compound	inhibition at 50 µM
O=C(CCc1ccc(O)cc1)c1c(O)cc(O)cc1O [phloretin, 3-(4-hydroxyphenyl)-1-(2,4,6-trihydroxyphenyl)propan-1-one]	21%
O=c1c(O)c(-c2ccc(O)cc2O)oc2cc(O)cc(O)c12 [morin, 2-(2,4-dihydroxyphenyl)-3,5,7-trihydroxychromen-4-one]	70%
CC(Cc1ccc(O)c(O)c1)C(C)Cc1ccc(O)c(O)c1 (stereo not shown) [NDGA, 4,4′-(2,3-dimethylbutane-1,4-diyl)dibenzene-1,2-diol]	39%
COc1cc(/C=C/C(=O)/C=C(O)/C=C/c2ccc(O)c(OC)c2)ccc1O [curcumin, (1E,6E)-1,7-Bis(4-hydroxy-3-methoxyphenyl)hepta-1,6-diene-3,5-dione]	86%

Same assay, conditions: compounds at 50 μM; 2 μM CsgA, 50 μM α-synuclein; ThT fluorescence at 40 hours; read-out: Inhibition of Aggregation CsgA-seeded αSyn (compound activity range)

Compound	inhibition at 50 µM
O=C(CCc1ccc(O)cc1)c1c(O)cc(O)cc1O [phloretin, 3-(4-hydroxyphenyl)-1-(2,4,6-trihydroxyphenyl)propan-1-one]	10 to 30%

Target: T3, human α-synuclein (Homo sapiens, UniProt P37840)
T3 construct: made in house; host or cells: E. coli
Assay: In vitro Thioflavin T assay of α-synuclein aggregation
Assay type: biochemical
Settings: compounds at 1 μM; 50 μM α-synuclein; ThT fluorescence at 40 hours; read-out: Inhibition of Aggregation αSyn
Method: In Vitro Thioflavin T Assay to Determine the Effects of Compounds on α-Synuclein Aggregation.
The ammonium sulfate pellet was washed with an equal volume of 100 mM ammonium acetate in ethanol, pelleted via centrifugation, washed twice with ethanol, dried overnight, resuspended in 10 mM Tris pH 7.4, and passed through a 50 kDa cut-off column. The assay was conducted in 96-well black microplates with a single 2 mm bead in each well, 40 μM ThioflavinT, 1% DMSO, 50 μM α-synuclein, 100 mM sodium chloride, 9.3 mM potassium phosphate pH 7.3, 4.6 mM Tris pH 7.4 (added as the solvent for α-synuclein or independently for controls lacking α-synuclein), and compounds at 1 μM or 50 μM. […] Readings were performed hourly for up to 73 hours. The effect of compounds on α-synuclein aggregation in the assay was determined with data from 40 hours, following the plateau of the fluorescent signal in the untreated (no compound) control wells containing α-synuclein. Fluorescence values for each compound with α-synuclein were first adjusted by subtracting the average fluorescence of the compound in the absence of α-synuclein.

Compound	inhibition at 1 µM
O=c1cc(-c2ccc(O)cc2)oc2cc(O)cc(O)c12 [apigenin, 5,7-dihydroxy-2-(4-hydroxyphenyl)-4H-1-benzopyran-4-one]	56%
O=C(/C=C/c1ccc(O)c(O)c1)O[C@H](Cc1ccc(O)c(O)c1)C(=O)O [rosmarinic acid]	99%
O=c1c(-c2ccc(O)cc2)coc2cc(O)cc(O)c12 [genistein, 5,7-dihydroxy-3-(4-hydroxyphenyl)chromen-4-one]	40%
O=c1c(O)c(-c2ccc(O)c(O)c2)oc2cc(O)cc(O)c12 [quercetin, 2-(3,4-dihydroxyphenyl)-3,5,7-trihydroxychromen-4-one]	99%

Same assay, conditions: compounds at 1 μM; 50 μM α-synuclein; ThT fluorescence at 40 hours; read-out: Inhibition of Aggregation αSyn (compound activity range)

Compound	inhibition at 1 µM
O=c1cc(-c2ccc(O)cc2)oc2cc(O)cc(O)c12 [apigenin, 5,7-dihydroxy-2-(4-hydroxyphenyl)-4H-1-benzopyran-4-one]	30 to 60%
O=C(/C=C/c1ccc(O)c(O)c1)O[C@H](Cc1ccc(O)c(O)c1)C(=O)O [rosmarinic acid]	> 60%
O=c1c(-c2ccc(O)cc2)coc2cc(O)cc(O)c12 [genistein, 5,7-dihydroxy-3-(4-hydroxyphenyl)chromen-4-one]	30 to 60%
O=c1c(O)c(-c2ccc(O)c(O)c2)oc2cc(O)cc(O)c12 [quercetin, 2-(3,4-dihydroxyphenyl)-3,5,7-trihydroxychromen-4-one]	> 60%

Same assay, conditions: compounds at 50 μM; 50 μM α-synuclein; ThT fluorescence at 40 hours; read-out: Inhibition of Aggregation αSyn

Compound	inhibition at 50 µM
O=C(CCc1ccc(O)cc1)c1c(O)cc(O)cc1O [phloretin, 3-(4-hydroxyphenyl)-1-(2,4,6-trihydroxyphenyl)propan-1-one]	46%
O=c1c(O)c(-c2ccc(O)cc2O)oc2cc(O)cc(O)c12 [morin, 2-(2,4-dihydroxyphenyl)-3,5,7-trihydroxychromen-4-one]	88%
CC(Cc1ccc(O)c(O)c1)C(C)Cc1ccc(O)c(O)c1 (stereo not shown) [NDGA, 4,4′-(2,3-dimethylbutane-1,4-diyl)dibenzene-1,2-diol]	54%

Same assay, conditions: compounds at 50 μM; 50 μM α-synuclein; ThT fluorescence at 40 hours; read-out: Inhibition of Aggregation αSyn (compound activity range)

Compound	inhibition at 50 µM
O=C(CCc1ccc(O)cc1)c1c(O)cc(O)cc1O [phloretin, 3-(4-hydroxyphenyl)-1-(2,4,6-trihydroxyphenyl)propan-1-one]	30 to 60%
O=c1c(O)c(-c2ccc(O)cc2O)oc2cc(O)cc(O)c12 [morin, 2-(2,4-dihydroxyphenyl)-3,5,7-trihydroxychromen-4-one]	> 60%
CC(Cc1ccc(O)c(O)c1)C(C)Cc1ccc(O)c(O)c1 (stereo not shown) [NDGA, 4,4′-(2,3-dimethylbutane-1,4-diyl)dibenzene-1,2-diol]	30 to 60%

Same assay, conditions: read-out: Inhibition of Aggregation αSyn

Compound	inhibition at 50 µM
COc1cc(/C=C/C(=O)/C=C(O)/C=C/c2ccc(O)c(OC)c2)ccc1O [curcumin, (1E,6E)-1,7-Bis(4-hydroxy-3-methoxyphenyl)hepta-1,6-diene-3,5-dione]	89%

Same assay, conditions: read-out: Inhibition of Aggregation αSyn (compound activity range)

Compound	inhibition at 50 µM
COc1cc(/C=C/C(=O)/C=C(O)/C=C/c2ccc(O)c(OC)c2)ccc1O [curcumin, (1E,6E)-1,7-Bis(4-hydroxy-3-methoxyphenyl)hepta-1,6-diene-3,5-dione]	> 60%
